According to ChEMBL document CHEMBL1137759, “Design, parallel synthesis, and crystal structures of biphenyl antithrombotics as selective inhibitors of tissue factor FVIIa complex. Part 1: Exploration of S2 pocket pharmacophores” (Bioorg Med Chem, 2009):

Experiments:
Coagulation factor X = Coagulation factor X (Homo sapiens, UniProt P00742)
[1] = biological target: Coagulation factor VII/tissue factor (Homo sapiens, UniProt P08709); assay: Inhibition of tissue factor/factor 7a; assay type: protein-complex assay
Sequence of Coagulation factor VII/tissue factor (P08709 61-212 limits assumed): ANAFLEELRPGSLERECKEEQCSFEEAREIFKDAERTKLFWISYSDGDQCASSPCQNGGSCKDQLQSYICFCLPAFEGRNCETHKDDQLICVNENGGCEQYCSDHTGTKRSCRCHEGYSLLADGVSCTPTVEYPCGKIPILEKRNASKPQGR
Sequence of Coagulation factor VII/tissue factor (P08709 213-466 limits assumed): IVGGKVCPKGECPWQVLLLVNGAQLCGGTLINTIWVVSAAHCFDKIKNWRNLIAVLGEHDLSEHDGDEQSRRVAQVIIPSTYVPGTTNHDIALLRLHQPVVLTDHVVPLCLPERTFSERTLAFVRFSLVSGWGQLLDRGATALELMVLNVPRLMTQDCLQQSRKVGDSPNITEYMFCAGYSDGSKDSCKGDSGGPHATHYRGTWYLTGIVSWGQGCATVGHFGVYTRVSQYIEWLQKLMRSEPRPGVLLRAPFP
Sequence of Coagulation factor VII/tissue factor (P13726 33-295 partner limits assumed): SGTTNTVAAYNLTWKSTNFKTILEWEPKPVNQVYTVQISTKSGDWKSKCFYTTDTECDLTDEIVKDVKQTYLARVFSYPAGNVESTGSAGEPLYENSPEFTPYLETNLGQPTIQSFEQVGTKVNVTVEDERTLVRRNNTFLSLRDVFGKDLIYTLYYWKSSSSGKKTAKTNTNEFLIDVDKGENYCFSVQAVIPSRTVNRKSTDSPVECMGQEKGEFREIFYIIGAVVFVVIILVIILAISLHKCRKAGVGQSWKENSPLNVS

[2] = Selectivity ratio of IC50 for tissue factor/factor 7a to IC50 for trypsin
Prothrombin = Prothrombin (Homo sapiens, UniProt P00734); assay: Inhibition of thrombin
Plasminogen = Plasminogen (Homo sapiens, UniProt P00747); assay: Inhibition of plasmin
Sequence of Plasminogen (P00747 97-580 limits assumed): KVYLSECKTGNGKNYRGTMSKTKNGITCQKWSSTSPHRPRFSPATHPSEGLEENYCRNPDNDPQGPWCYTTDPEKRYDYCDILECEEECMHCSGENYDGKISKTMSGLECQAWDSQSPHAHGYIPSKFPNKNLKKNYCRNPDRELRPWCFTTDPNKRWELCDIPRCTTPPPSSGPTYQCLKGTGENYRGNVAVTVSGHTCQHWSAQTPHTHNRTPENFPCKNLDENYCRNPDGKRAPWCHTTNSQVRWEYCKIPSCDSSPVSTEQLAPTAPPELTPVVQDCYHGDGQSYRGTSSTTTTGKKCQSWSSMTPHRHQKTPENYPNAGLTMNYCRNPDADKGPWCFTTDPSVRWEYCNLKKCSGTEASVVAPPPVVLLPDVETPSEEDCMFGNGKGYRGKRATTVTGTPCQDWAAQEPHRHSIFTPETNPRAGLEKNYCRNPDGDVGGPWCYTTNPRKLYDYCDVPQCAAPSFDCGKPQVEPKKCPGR
Sequence of Plasminogen (P00747 581-810 limits assumed): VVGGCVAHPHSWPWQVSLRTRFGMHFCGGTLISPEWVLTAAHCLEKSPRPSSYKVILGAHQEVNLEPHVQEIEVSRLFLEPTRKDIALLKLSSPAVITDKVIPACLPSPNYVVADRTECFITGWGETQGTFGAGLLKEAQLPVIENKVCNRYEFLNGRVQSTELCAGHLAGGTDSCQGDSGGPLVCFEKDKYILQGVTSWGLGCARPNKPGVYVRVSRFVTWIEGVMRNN

Sequence of Coagulation factor X (P00742 41-179 limits assumed): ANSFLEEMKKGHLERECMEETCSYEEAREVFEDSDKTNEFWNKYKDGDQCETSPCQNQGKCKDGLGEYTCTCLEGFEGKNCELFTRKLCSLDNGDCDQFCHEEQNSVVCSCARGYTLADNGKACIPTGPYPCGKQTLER
Sequence of Coagulation factor X (P00742 235-488 limits assumed): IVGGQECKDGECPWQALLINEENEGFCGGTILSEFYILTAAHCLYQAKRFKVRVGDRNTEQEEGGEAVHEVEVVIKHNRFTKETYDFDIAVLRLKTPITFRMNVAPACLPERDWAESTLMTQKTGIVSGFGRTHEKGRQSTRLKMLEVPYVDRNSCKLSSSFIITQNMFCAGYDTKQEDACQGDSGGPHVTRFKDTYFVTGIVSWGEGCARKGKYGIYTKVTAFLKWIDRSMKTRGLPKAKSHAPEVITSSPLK

SMILES	IC50 (Coagulation factor X) [nM]	IC50 [1] [nM]	Ratio IC50 [2]	IC50 (Prothrombin) [nM]	IC50 (Plasminogen) [nM]
CC(C)CNC(=O)c1ccc(-c2ccc(-c3ccoc3)cc2C(=O)Nc2ccc(C(=N)N)cc2)c(C(=O)O)c1	120	11	42.6	16100	252
CC(C)CNC(=O)c1ccc(-c2ccc(-c3ccc(CO)s3)cc2C(=O)Nc2ccc(C(=N)N)cc2)c(C(=O)O)c1		650			
CC(C)CNC(=O)c1ccc(-c2ccc(-c3cccnc3)cc2C(=O)Nc2ccc(C(=N)N)cc2)c(C(=O)O)c1	36500	546	5.5	50000	
CCCc1ccc(-c2ccc(C(=O)NCC(C)C)cc2C(=O)O)c(C(=O)Nc2ccc(C(=N)N)cc2)c1	46000	92	450	39600	> 5000
CC(C)CNC(=O)c1ccc(-c2ccc(C#CCCO)cc2C(=O)Nc2ccc(C(=N)N)cc2)c(C(=O)O)c1	59000	500	0.8	17900	
CC(C)CNC(=O)c1ccc(-c2ccc(C#CCO)cc2C(=O)Nc2ccc(C(=N)N)cc2)c(C(=O)O)c1		320			
CC(C)CNC(=O)c1ccc(-c2ccc(CN)cc2C(=O)Nc2ccc(C(=N)N)cc2)c(C(=O)O)c1		1220			
CC(C)CNC(=O)c1ccc(-c2ccc(C=CCO)cc2C(=O)Nc2ccc(C(=N)N)cc2)c(C(=O)O)c1	6620	52	34	22700	
CC(C)=CCc1ccc(-c2ccc(C(=O)NCC(C)C)cc2C(=O)O)c(C(=O)Nc2ccc(C(=N)N)cc2)c1	27000	45	21.1	13000	308
CC(C)CNC(=O)c1ccc(-c2ccc(Cc3ccccc3)cc2C(=O)Nc2ccc(C(=N)N)cc2)c(C(=O)O)c1	1750	21	26.9	8510	656
CC(C)CNC(=O)c1ccc(-c2ccc(-c3nccs3)cc2C(=O)Nc2ccc(C(=N)N)cc2)c(C(=O)O)c1	230	104	14.1	70400	494
CC(C)CNC(=O)c1ccc(-c2ccc(-c3cccn3C)cc2C(=O)Nc2ccc(C(=N)N)cc2)c(C(=O)O)c1	50	76	5.4	86900	
CCc1ccc(-c2ccc(C(=O)NCC(C)C)cc2C(=O)O)c(C(=O)Nc2ccc(C(=N)N)cc2)c1	50000	97	61.8	12300	> 5000
CC(C)CNC(=O)c1ccc(-c2ccc(-c3ccsc3)cc2C(=O)Nc2ccc(C(=N)N)cc2)c(C(=O)O)c1	40	10	37.7	15000	35
CC(C)CNC(=O)c1ccc(-c2ccc(C(O)CO)cc2C(=O)Nc2ccc(C(=N)N)cc2)c(C(=O)O)c1 (stereo unspecified)		1610			
C/C=C\Cc1ccc(-c2ccc(C(=O)NCC(C)C)cc2C(=O)O)c(C(=O)Nc2ccc(C(=N)N)cc2)c1	7600	11	119	4880	684
C=C(C)/C=C\c1ccc(-c2ccc(C(=O)NCC(C)C)cc2C(=O)O)c(C(=O)Nc2ccc(C(=N)N)cc2)c1	310	130			
CC(C)CNC(=O)c1ccc(-c2ccc(O)cc2C(=O)Nc2ccc(C(=N)N)cc2)c(C(=O)O)c1	50000	67	5.7	50000	
CC(C)CNC(=O)c1ccc(-c2ccc(-c3ccsc3C(=O)O)cc2C(=O)Nc2ccc(C(=N)N)cc2)c(C(=O)O)c1		190			
CC(C)CNC(=O)c1ccc(-c2ccc(CN=[N+]=[N-])cc2C(=O)Nc2ccc(C(=N)N)cc2)c(C(=O)O)c1		60			
CC(C)CNC(=O)c1ccc(-c2ccc(-c3ccccc3)cc2C(=O)Nc2ccc(C(=N)N)cc2)c(C(=O)O)c1	350	98	4.3	11800	
CC(C)CNC(=O)c1ccc(-c2ccc(-c3cccs3)cc2C(=O)Nc2ccc(C(=N)N)cc2)c(C(=O)O)c1	150	10	16	8020	
CC(C)CNC(=O)c1ccc(-c2ccc(-c3ccncc3)cc2C(=O)Nc2ccc(C(=N)N)cc2)c(C(=O)O)c1	19400	231	5.3	35400	
CC(C)CNC(=O)c1ccc(-c2ccccc2C(=O)Nc2ccc(C(=N)N)cc2)c(C(=O)O)c1	103000	120	1.5	64000	
CC(C)CNC(=O)c1ccc(-c2ccc(-c3sccc3CO)cc2C(=O)Nc2ccc(C(=N)N)cc2)c(C(=O)O)c1	640	330	13.3	50000	
CC(C)CNC(=O)c1ccc(-c2ccc(-c3ccco3)cc2C(=O)Nc2ccc(C(=N)N)cc2)c(C(=O)O)c1	1300	9	41.4	14700	163
CC(C)CNC(=O)c1ccc(-c2ccc(C#CC(C)(C)O)cc2C(=O)Nc2ccc(C(=N)N)cc2)c(C(=O)O)c1		926			

More lines, now with the values ahead:

IC50 (Coagulation factor X) [nM]	IC50 [1] [nM]	Ratio IC50 [2]	IC50 (Prothrombin) [nM]	IC50 (Plasminogen) [nM]	SMILES
450	36	84.4	50000	408	CC(C)CNC(=O)c1ccc(-c2ccc(-c3ccsc3CO)cc2C(=O)Nc2ccc(C(=N)N)cc2)c(C(=O)O)c1
50	14	30.7	19900		CC(C)CNC(=O)c1ccc(-c2ccc(-c3ccc[nH]3)cc2C(=O)Nc2ccc(C(=N)N)cc2)c(C(=O)O)c1
1900	42	57.6	19200	2470	C=CCc1ccc(-c2ccc(C(=O)NCC(C)C)cc2C(=O)O)c(C(=O)Nc2ccc(C(=N)N)cc2)c1
8150	11	127	42100	913	CC(C)CNC(=O)c1ccc(-c2ccc(Cc3cccs3)cc2C(=O)Nc2ccc(C(=N)N)cc2)c(C(=O)O)c1
10	33	54.2	110000	229	CC(C)CNC(=O)c1ccc(-c2ccc(-c3cscc3CN)cc2C(=O)Nc2ccc(C(=N)N)cc2)c(C(=O)O)c1
11300	29	75.5	56200	358	C=C(CCO)c1ccc(-c2ccc(C(=O)NCC(C)C)cc2C(=O)O)c(C(=O)Nc2ccc(C(=N)N)cc2)c1
50	9	133	157000	242	CC(C)CNC(=O)c1ccc(-c2ccc(-c3cscc3CN=[N+]=[N-])cc2C(=O)Nc2ccc(C(=N)N)cc2)c(C(=O)O)c1
20	8	92.5	> 50000	457	CC(C)CNC(=O)c1ccc(-c2ccc(-c3ccoc3CO)cc2C(=O)Nc2ccc(C(=N)N)cc2)c(C(=O)O)c1
8140	25	115	50200	1000	C#Cc1ccc(-c2ccc(C(=O)NCC(C)C)cc2C(=O)O)c(C(=O)Nc2ccc(C(=N)N)cc2)c1
230	20	114	> 50000	554	CC(C)CNC(=O)c1ccc(-c2ccc(-c3cocc3CO)cc2C(=O)Nc2ccc(C(=N)N)cc2)c(C(=O)O)c1
130	9	56.7	63100	60	CC(C)CNC(=O)c1ccc(-c2ccc(-c3cscc3CO)cc2C(=O)Nc2ccc(C(=N)N)cc2)c(C(=O)O)c1
1170	13	40.8	17900	70	C=C(C)c1ccc(-c2ccc(C(=O)NCC(C)C)cc2C(=O)O)c(C(=O)Nc2ccc(C(=N)N)cc2)c1
6630	30	25.3	14900	14400	COc1ccc(-c2ccc(C(=O)NCC(C)C)cc2C(=O)O)c(C(=O)Nc2ccc(C(=N)N)cc2)c1
150	24	32.1	50000	1070	CC(C)CNC(=O)c1ccc(-c2ccc(-c3occc3CO)cc2C(=O)Nc2ccc(C(=N)N)cc2)c(C(=O)O)c1
1650	9	52.2	9400		C=Cc1ccc(-c2ccc(C(=O)NCC(C)C)cc2C(=O)O)c(C(=O)Nc2ccc(C(=N)N)cc2)c1
7100	12	295	39700	810	C=C(CO)c1ccc(-c2ccc(C(=O)NCC(C)C)cc2C(=O)O)c(C(=O)Nc2ccc(C(=N)N)cc2)c1
1500	9	59.8	28000		C=C=Cc1ccc(-c2ccc(C(=O)NCC(C)C)cc2C(=O)O)c(C(=O)Nc2ccc(C(=N)N)cc2)c1
5220	34	48.8	50000	127	CC#Cc1ccc(-c2ccc(C(=O)NCC(C)C)cc2C(=O)O)c(C(=O)Nc2ccc(C(=N)N)cc2)c1
